Holding throughout (assay): NCI anticancer screen, dose series, 48 h
Assay [1] deals with KM12 colon.
Assay [2] deals with SF-539 CNS.
Assay [3] deals with CCRF-CEM leukemia.
Assay [4] concerns UACC-62 melanoma.
Assay [5] concerns SK-MEL-2 melanoma.
Assay [6] relates to U251 CNS.
The subject of assay [7] is 786-0 renal.
Assay [8] has as its system COLO 205 colon.
The test system of assay [9] is UACC-257 melanoma.
Assay [10] relates to HOP-62 NSCLC.
Assay [11] has as its system HCC-2998 colon.
Assay [12] concerns PC-3 prostate.
Assay [13] concerns EKVX NSCLC.
Assay [14] relates to NCI-H23 lung.
Assay [15] deals with OVCAR-3 ovarian.

SMILES strings stand for the structures.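 Values below derive from 48-hour exposures of cells grown in 96-well plates, with endpoints linearly interpolated between the two concentrations bracketing the appropriate inhibition level. TGI: concentration producing complete growth inhibition.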

We go through nine compounds from PubChem BioAssay (NCI).

In the case of `CC(C)(C)C1=CC(=C(c2ccc(-c3c4nc(c(-c5ccc(C(=C6C=C(C(C)(C)C)C(=O)C(C(C)(C)C)=C6)c6cc(C(C)(C)C)c(O)c(C(C)(C)C)c6)cc5)c5ccc([nH]5)c(-c5ccc(C(=C6C=C(C(C)(C)C)C(=O)C(C(C)(C)C)=C6)c6cc(C(C)(C)C)c(O)c(C(C)(C)C)c6)cc5)c5nc(c(-c6ccc(C(=C7C=C(C(C)(C)C)C(=O)C(C(C)(C)C)=C7)c7cc(C(C)(C)C)c(O)c(C(C)(C)C)c7)cc6)c6ccc3[nH]6)C=C5)C=C4)cc2)c2cc(C(C)(C)C)c(O)c(C(C)(C)C)c2)C=C(C(C)(C)C)C1=O`, the TGI in assay [1], in assay [2], in assay [3], in [4], in assay [5] and in assay [6] was over 100 µM in each case. For the same compound, the TGI in assay [7], in assay [8], in assay [9], in [10], in assay [11] and in [12] was over 100 µM each time. In addition, the TGI in assay [13], in assay [14] and in assay [15] was over 100 µM in each case.

Turning to `CC(=O)N[C@@H](Cc1ccc(O)cn1)C(=O)NCc1cccc(Cl)c1`, the TGI in assay [1], in [2], in assay [3], in [4], in [5] and in assay [6] was over 100 µM in each case. The TGI in assay [7], in assay [8], in assay [9], in assay [10], in [11] and in assay [12] was over 100 µM throughout. Further, the TGI in assay [13], in assay [14] and in assay [15] was over 100 µM in each case.

Regarding `COc1cc2c(cc1OC)CCc1cc(OC)c(OC)cc1CC2`, the TGI in assay [1], in [2], in assay [3], in assay [4], in assay [5] and in [6] was over 100 µM in each case. Further, the TGI in assay [7], in assay [8], in assay [9], in assay [10], in assay [11] and in [12] was over 100 µM in each case. For the same compound, the TGI in [13], in [14] and in [15] was over 100 µM throughout.

With `COC(=O)C1C(=O)C=CN([C@H](C)c2ccccc2)[C@@H]1Cc1ccc(OC)c(OCc2ccccc2)c1I` (stereo not given in full), the TGI in assay [1] is 52 µM; in assay [2], 36.4 µM; in assay [3], over 100 µM; in assay [4] it was 25.7 µM; in assay [5], 40 µM; in assay [6] it was 39.7 µM. Further, the TGI is 34.4 µM in [7]; 31.7 µM in assay [8]; 39.3 µM in assay [9]; 52.4 µM in [10]; 32.5 µM in [11]; over 100 µM in assay [12]. In addition, the TGI is over 100 µM in assay [13], 40.3 µM in assay [14] and 28.2 µM in [15].

Take `O=C1O/C(=C(/Br)c2ccc(Cl)c(Cl)c2)c2ccccc21`: the TGI in assay [1], in assay [2], in assay [3], in [4], in [5] and in assay [6] was over 10 µM throughout. Further, the TGI in assay [7], in [8], in [9], in [10], in assay [11] and in assay [12] was over 10 µM each time. For the same compound, the TGI in [13], in assay [14] and in [15] was over 10 µM throughout.

In the case of `CN(/N=C/c1ccc(OCc2cccc(COc3ccc(C=O)cc3)n2)cc1)c1cnn(-c2ccc(Cl)cc2Cl)c(=O)c1Cl`, the TGI is over 100 µM in assay [1]; 46.9 µM in assay [2]; over 100 µM in assay [3]; over 100 µM in assay [4]; over 100 µM in assay [5]; over 100 µM in assay [6]. Moreover, the TGI in assay [7], in [8], in assay [9], in [10], in assay [11] and in [12] was over 100 µM each time. For the same compound, the TGI in assay [13], in assay [14] and in assay [15] was over 100 µM throughout.

For `CC(=NNC(=S)Nc1ccc(C)cc1)c1cccc(C(C)=NNC(=S)Nc2ccc(C)cc2)n1`, the TGI in assay [1] was over 100 µM; in [2] it was 28.1 µM; in assay [3], over 100 µM; in assay [4], over 100 µM; in assay [5], over 100 µM; in assay [6], 97 µM. Further, the TGI was over 100 µM in assay [7]; 43.8 µM in assay [8]; 69.7 µM in assay [9]; 68.7 µM in [10]; over 100 µM in assay [11]; over 100 µM in assay [12]. For the same compound, the figures for the TGI in assay [13], in [14] and in assay [15] were over 100 µM, over 100 µM and 14.3 µM, respectively.

Take `COC(=O)C(COC(C)=O)NC(=O)/C=C/c1ccc(O)c(OC(C)=O)c1` (stereo not given): the TGI was over 100 µM in assay [1]; 53.9 µM in assay [2]; over 100 µM in assay [3]; over 100 µM in assay [4]; over 100 µM in assay [5]; over 100 µM in [6]. The TGI in assay [7], in assay [8], in [9], in assay [10], in assay [11] and in assay [12] was over 100 µM in each case. Moreover, the TGI in [13], in [14] and in [15] was over 100 µM in each case.

Consider `Clc1ccc(-c2c(C3=NCCCN3)nnn2-c2ccc(Cl)cc2)cc1`, for which the TGI in assay [1] is over 77.5 µM; in assay [2] it was 67.5 µM; in [3] it was over 83.3 µM; in assay [4] it was 36 µM; in [5] it was 34.6 µM; in assay [6], over 75.8 µM. Also, the TGI in assay [7] is over 77.1 µM; in [8], 32.8 µM; in assay [9], 44.1 µM; in [10] it was over 82.6 µM; in assay [11], 38.3 µM; in assay [12] it was over 68.4 µM. Besides, the TGI in assay [13], in assay [14] and in [15] was over 100 µM in each case.
